Laboratory results published in patent US20260184725A1, “CYCLIC 2-AMINOPYRIMIDINE COMPOUND AND PHARMACEUTICAL COMPOSITION AND USE THEREOF” (SHANGHAI INSTITUTE OF ORGANIC CHEMISTRY, CHINESE ACADEMY OF …, priority 2023, published 2026).
Read-outs that look alike come from different tables or passages of the source.

Experiments:
[1] = molecular target: BaF3-EGFR (L858R/T790M/C797S) (Homo sapiens, UniProt P00533, T790M/C797S/L858R, cells depend on it); assay: CCK-8 cell proliferation, BaF3-EGFR(L858R/T790M/C797S); format: cell-based; settings: CCK-8, 72 hours; read-out: Average value of IC50 of inhibition against EGFR-mutant cells growth, BaF3-EGFR (L858R/T790M/C797S)
Description: (§1) Ba/F3 cells were obtained from Deutsche Sammlung von Mikroorganismen und Zellkulturen GmbH (DSMZ). […] All cells used in the study were verified by short tandem repeat (STR) analysis conducted by Genesky.
(§2) Tumor cell viability was assessed using a CCK-8 cell counting kit (A311-01/02, Vazyme, Nanjing, China). Cells were seeded at a density of 3000 cells per well into 96-well plates and cultured overnight. Subsequently, the cells were treated with compounds of different concentrations and incubated for 72 hours. After 72 hours, 10 μL of CCK-8 solution was added to each well. The plates were then returned to the incubator and incubated at 37° C. for 2 hours. The absorbance was measured at 450 nm using a microplate reader. A calibration curve was constructed using data obtained from wells containing known numbers of viable cells.

[2] = molecular target: BaF3-EGFR (19del/T790M/C797S) (Homo sapiens, UniProt P00533, T790M/C797S, cells depend on it, form not given); assay: CCK-8 cell proliferation, BaF3-EGFR(19del/T790M/C797S); format: cell-based; settings: CCK-8, 72 hours; read-out: Average value of IC50 of inhibition against EGFR-mutant cells growth, BaF3-EGFR (19del/T790M/C797S)
Chain of BaF3-EGFR (19del/T790M/C797S) (P00533 with tags, fused parts or gaps DEL746-750/T790M/C797S, form open): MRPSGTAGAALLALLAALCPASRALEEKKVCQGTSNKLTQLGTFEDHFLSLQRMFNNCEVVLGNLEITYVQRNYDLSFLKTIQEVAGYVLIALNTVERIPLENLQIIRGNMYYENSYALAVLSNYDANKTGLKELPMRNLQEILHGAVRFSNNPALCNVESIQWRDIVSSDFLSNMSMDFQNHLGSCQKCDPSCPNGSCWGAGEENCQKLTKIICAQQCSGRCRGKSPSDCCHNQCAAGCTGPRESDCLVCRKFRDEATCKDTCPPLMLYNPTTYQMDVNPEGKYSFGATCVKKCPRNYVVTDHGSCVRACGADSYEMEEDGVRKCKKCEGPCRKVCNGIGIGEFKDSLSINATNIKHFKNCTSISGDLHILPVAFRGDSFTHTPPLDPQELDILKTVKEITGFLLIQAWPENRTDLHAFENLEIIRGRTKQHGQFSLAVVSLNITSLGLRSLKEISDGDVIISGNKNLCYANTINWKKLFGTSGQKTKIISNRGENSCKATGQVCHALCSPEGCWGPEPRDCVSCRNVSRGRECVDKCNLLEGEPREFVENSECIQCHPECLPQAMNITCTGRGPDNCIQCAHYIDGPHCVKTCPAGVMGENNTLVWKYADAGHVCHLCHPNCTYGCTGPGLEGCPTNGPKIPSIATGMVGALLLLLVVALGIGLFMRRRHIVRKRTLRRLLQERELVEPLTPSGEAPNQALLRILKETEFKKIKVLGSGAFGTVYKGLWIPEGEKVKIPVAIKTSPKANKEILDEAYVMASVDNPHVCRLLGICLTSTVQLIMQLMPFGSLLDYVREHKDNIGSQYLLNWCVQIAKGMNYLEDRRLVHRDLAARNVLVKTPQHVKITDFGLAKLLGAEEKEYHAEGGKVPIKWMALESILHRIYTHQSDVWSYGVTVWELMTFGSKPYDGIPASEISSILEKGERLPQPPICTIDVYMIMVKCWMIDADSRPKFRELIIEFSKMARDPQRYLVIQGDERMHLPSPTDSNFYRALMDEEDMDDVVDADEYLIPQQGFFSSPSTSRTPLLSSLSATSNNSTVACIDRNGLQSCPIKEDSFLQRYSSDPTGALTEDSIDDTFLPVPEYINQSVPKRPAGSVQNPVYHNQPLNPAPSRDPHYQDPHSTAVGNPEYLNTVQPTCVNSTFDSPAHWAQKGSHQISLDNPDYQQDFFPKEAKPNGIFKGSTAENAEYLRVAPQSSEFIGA
Description: as §1, §2

[3] = tested on: PC-9-OR (19del/T790M/C797S); assay: CCK-8 cell proliferation, PC-9-OR; format: cell-based; settings: PC9-OR, read-out: Average value of IC50 of inhibition against EGFR-mutant cells growth, PC-9-OR (19del/T790M/C797S)
From the text: (§3) Ba/F3 cells were obtained from Deutsche Sammlung von Mikroorganismen und Zellkulturen GmbH (DSMZ). Ba/F3 cells stably expressing EGFR19del/T790M/C797S or EGFR L858R/T790M/C797S were generated by infecting parental cells with corresponding retroviruses. PC-9-OR was a tumor cell model obtained by simultaneously knocking in T790M and C797S mutations into 19del-activating mutation-dependent PC-9 tumor cells using CRISPR technology. This model, which proliferated dependent on EGFR19del/T790M/C797S resistance mutation, was used to evaluate the inhibitory activity of compounds against EGFR19del/T790M/C797S resistance mutants (Cancer Science. 2022; 113:709-720). All cells used in the study were verified by short tandem repeat (STR) analysis conducted by Genesky.
as §2

[4] = tested on: BaF3 parent cell; assay: CCK-8 cell proliferation, BaF3 parent cell; format: cell-based; settings: Mus musculus, read-out: Average value of IC50 of inhibition against cells growth, BaF3 parent cell
From the text: as §3, §2

[5] = molecular target: T1, EGFR^19del/T790M/C797S (Homo sapiens, UniProt P00533, T790M/C797S, form not given); assay: ELISA kinase activity inhibition, EGFR 19del/T790M/C797S; format: biochemical; settings: ATP 5 μM, read-out: The average IC50 value (nM) for inhibiting the activity of different tyrosine kinases, EGFR^19del/T790M/C797S
T1 construct: fused on or other part: Probably a GST tag on the cytoplasmic fragment, as in the vendor's product
T1 sequence (P00533 with tags, fused parts or gaps DEL746-750/T790M/C797S, form open): as above
Description: (§4) EGFR (WT) is a wild-type epidermal growth factor receptor.
(§5) Enzyme-Linked Immunosorbent Assay (ELISA) was used to detect the inhibitory effect of compounds on kinase activity.
(§6) The main experimental steps were as follows: Enzyme reaction substrate Poly (Glu, Tyr)4:1 was diluted with potassium free PBS (10 mM sodium phosphate buffer, 150 mM NaCl, pH 7.2-7.4) to 20 μg/mL, and reacted at 37° C. for 12 hours to 16 hours to coat the enzyme-linked immunosorbent assay plate. ATP solution (final concentration 5 μM) diluted with reaction buffer (50 mM HEPES pH 7.4, 50 mM MgCl2, 0.5 mM MnCl2, 0.2 mM Na3VO4, 1 mM DTT) was added to each well, followed by the test compound or solvent control, then the kinase reaction was initiated and the plate was shaken at 37° C. for 1 hour. The plate was washed three times with T-PBS, then added antibody PY99. The plate was shaken at 37° C. for 0.5 hours. After washing the plate with T-PBS, added horseradish peroxidase-labeled IgG and shaken at 37° C. for 0.5 hours. After washing the plate again, added 2 mg/mL of OPD colorimetric solution and incubated at 25° C. in the dark for 1 minutes to 10 minutes. […] The IC50 values were obtained from the inhibition curve analysis.

[6] = molecular target: EGFR^L858R/T790M/C797S (Homo sapiens, UniProt P00533, C797S/L858R/T790M); assay: ELISA kinase activity inhibition, EGFR L858R/T790M/C797S; format: biochemical; settings: ATP 5 μM, read-out: The average IC50 value (nM) for inhibiting the activity of different tyrosine kinases, EGFR^L858R/T790M/C797S
Chain of EGFR^L858R/T790M/C797S (P00533 25-1210 T790M/C797S/L858R): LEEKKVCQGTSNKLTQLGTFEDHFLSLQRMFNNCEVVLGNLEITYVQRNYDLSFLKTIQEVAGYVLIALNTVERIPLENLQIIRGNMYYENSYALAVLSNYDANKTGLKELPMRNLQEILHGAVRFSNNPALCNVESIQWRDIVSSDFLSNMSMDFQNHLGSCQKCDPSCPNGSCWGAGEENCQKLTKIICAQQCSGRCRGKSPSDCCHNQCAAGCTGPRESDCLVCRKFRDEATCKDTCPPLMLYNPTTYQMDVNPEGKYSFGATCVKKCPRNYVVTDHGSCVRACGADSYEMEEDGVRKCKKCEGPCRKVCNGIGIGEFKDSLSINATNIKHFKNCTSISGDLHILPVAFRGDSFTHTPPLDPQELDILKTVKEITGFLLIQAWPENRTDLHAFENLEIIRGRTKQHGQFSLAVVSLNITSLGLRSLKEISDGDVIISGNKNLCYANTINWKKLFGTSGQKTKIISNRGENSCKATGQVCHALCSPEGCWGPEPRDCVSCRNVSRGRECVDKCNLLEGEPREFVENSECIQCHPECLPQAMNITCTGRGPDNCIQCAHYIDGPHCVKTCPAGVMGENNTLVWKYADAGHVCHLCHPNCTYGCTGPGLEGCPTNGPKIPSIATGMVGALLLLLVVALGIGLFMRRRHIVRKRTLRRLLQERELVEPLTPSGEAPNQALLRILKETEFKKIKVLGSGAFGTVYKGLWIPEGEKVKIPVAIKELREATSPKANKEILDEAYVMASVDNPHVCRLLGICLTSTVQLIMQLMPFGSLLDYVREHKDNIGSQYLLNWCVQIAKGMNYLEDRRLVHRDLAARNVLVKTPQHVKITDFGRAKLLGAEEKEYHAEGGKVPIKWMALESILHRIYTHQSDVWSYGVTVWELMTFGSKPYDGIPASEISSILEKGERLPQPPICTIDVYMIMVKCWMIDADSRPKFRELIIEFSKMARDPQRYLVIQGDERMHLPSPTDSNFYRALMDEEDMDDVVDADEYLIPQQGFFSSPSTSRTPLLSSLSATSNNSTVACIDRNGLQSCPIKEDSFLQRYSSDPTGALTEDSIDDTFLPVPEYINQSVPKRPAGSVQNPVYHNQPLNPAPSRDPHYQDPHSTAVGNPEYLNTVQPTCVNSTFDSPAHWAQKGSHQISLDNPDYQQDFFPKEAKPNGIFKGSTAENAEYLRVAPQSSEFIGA
Description: as §5, §6

[7] = molecular target: T2, EGFR^WT (Homo sapiens, UniProt P00533); assay: ELISA kinase activity inhibition, wild-type EGFR; format: biochemical; settings: ATP 5 μM, read-out: The average IC50 value (nM) for inhibiting the activity of different tyrosine kinases, EGFR^WT
T2 construct: purchased Eurofins
T2 sequence (P00533 25-1210): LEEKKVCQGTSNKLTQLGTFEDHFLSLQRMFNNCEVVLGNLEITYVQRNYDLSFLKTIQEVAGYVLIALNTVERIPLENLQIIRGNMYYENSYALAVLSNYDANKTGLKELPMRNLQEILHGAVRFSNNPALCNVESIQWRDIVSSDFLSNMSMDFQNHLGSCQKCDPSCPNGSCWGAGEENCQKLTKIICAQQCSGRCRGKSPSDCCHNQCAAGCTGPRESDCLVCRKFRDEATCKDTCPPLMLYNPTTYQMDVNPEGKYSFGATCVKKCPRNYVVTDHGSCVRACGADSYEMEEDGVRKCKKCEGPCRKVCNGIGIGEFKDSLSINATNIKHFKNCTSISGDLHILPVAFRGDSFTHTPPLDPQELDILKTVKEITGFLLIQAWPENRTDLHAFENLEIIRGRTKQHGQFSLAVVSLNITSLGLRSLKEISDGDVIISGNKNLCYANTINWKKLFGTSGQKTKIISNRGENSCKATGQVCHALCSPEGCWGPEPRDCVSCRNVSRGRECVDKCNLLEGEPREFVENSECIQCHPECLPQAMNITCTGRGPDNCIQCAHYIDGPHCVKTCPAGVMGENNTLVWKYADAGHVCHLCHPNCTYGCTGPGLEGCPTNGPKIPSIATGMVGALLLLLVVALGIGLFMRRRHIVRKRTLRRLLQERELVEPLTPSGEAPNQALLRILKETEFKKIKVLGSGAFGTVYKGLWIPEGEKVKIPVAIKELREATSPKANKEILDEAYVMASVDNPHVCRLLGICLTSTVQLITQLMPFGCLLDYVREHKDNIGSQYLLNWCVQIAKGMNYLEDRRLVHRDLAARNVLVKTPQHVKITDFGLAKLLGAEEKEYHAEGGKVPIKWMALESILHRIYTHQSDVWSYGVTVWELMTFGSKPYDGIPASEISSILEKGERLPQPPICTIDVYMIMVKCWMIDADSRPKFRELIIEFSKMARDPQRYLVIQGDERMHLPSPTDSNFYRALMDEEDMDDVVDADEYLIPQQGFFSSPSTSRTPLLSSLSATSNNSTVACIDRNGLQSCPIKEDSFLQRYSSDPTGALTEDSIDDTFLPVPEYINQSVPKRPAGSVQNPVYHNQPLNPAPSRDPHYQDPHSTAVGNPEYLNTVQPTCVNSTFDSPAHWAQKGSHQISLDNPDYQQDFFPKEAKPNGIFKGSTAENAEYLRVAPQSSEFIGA
Description: as §4, §5, §6

[8] = Pharmacokinetic parameters in rats; format: in vivo; settings: male, Sprague-Dawley, plasma, rat
Description: Sprague-Dawley rats (males, 3 per group), weighing 180 g to 220 g, were administered test compounds intravenously and orally at doses of 1 mg/kg and 5 mg/kg, respectively. The compounds were dissolved in a mixed solvent (5% DMSO+10% Solutol+85% PBS) for intravenous injection. 0.5% CMC-Na solution (800 cps to 1200 cps) was used as a suspension agent for oral administration. At designated time points, 0.2 mL of blood samples were collected via the jugular vein and placed into tubes containing K2-EDTA, stored on ice, and then centrifuged. Sampling intervals for the injection group were 0.083, 0.25, 0.5, 1, 2, 4, 8, and 24 hours, while for the oral group, sampling intervals were 0.25, 0.5, 1, 2, 4, 6, 8, and 24 hours. The blood samples were centrifuged at 6800 g for 6 minutes at 2° C. to 8° C. within 1 hour after collection and stored frozen at approximately −80° C. Subsequently, 200 μL of MeOH was used to precipitate 20 μL of plasma samples containing 100 ng/mL IS. The mixture was vortexed for 1 minute and then centrifuged at 18000 g for 7 minutes. 200 μL of the supernatant was transferred to a 96-well plate, and 1 μL of the supernatant sample was injected for LC-MS/MS analysis. Finally, Phoenix WinNonlin7.0 software was used to calculate the pharmacokinetic (PK) parameters.

| GI50 [1] [nM] | GI50 [2] [nM] | IC50 ([4]; BaF3, CCK-8, 72 hours) [nM] | IC50 [5] [nM] | IC50 [6] [nM] | IC50 [7] [nM] | SMILES | further results |
| --- | --- | --- | --- | --- | --- | --- | --- |
|  |  | 2370 |  |  |  | C=CC(=O)Nc1cc(Nc2nccc(-c3cn(C)c4ccccc34)n2)c(OC)cc1N(C)CCN(C)C [Osimertinib, reference compound] | IC50 ([3]; CCK-8, 72 hours): 2100 nM |
| 327 | 229 | 2230 | 23.3 | 54.8 | > 1000 | CCc1cc(N2CCOCC2)c2cc1Nc1nccc(n1)-c1cn(S(=O)(=O)CC)c3cc(ccc13)OCCCn1ccc-2n1 [FBH-3-47, (Z)-4^6-ethyl-1^1-(ethylsulfonyl)-4^4-morpholino-1^1H,5^1H-9-oxa-3-aza-1(3,6)-indole-2(4,2)-pyrimidine-5(4,1)-pyrazol-4(1,3)-benzenacyclononaphane] |  |
|  | 465 | 2000 | 8.2 | 12.6 | > 1000 | CCS(=O)(=O)n1cc2c3ccc(cc31)OC(C)CCn1cc(cn1)-c1cc(c(OC)cc1N1CCOCC1)Nc1nccc-2n1 (stereo not shown) [WQX-1-86, (Z)-1^1-(ethylsulfonyl)-4^6-methoxy-8-methyl-4^4-morpholino-1^1H,5^1H-9-oxa-3-aza-1(3,6)-indole-2(4,2)-pyrimidin-5(4,1)-pyrazol-4(1,3)-benzenacyclononaphane] |  |
| 325 | 429 | 3290 | 3.4 | 1 | 342 | Cc1cc(N2CCOCC2)c2cc1Nc1ncc(Cl)c(n1)-c1c[nH]c3cc(ccc13)OCCCn1cc-2cn1 [HC8990, 2^5-Chloro-4^6-Methyl-4^4-morpholino-1^1H,5^1H-9-oxa-3-aza-1(3,6)-Indole-2(4,2)-Pyrimidin-5(4,1)Pyrazol-4(1,3)-benzenacyclononaphane] | IC50 ([3]; CCK-8, 72 hours): 531 nM |
|  |  |  | 24.7 | 59 | > 1000 | C=C(C)c1cc2cc(c1N1CCOCC1)-c1cnn(c1)CCCOc1ccc3c(cn(S(=O)(=O)CC)c3c1)-c1nc(ncc1Cl)N2 [HC9002, 2^5-Chloro-1^1-ethylsulfonyl-4^4-morpholino-4^5-propenyl-1^1H,5^1H-9-oxa-3-aza-1(3,6)-indole-2(4,2)-pyrimidine-5(4,1)-pyrazole-4(1,3)-benzenacyclononaphane] |  |

More lines, now with the values behind:

| SMILES | GI50 [1] [nM] | GI50 [2] [nM] | IC50 ([4]; BaF3, CCK-8, 72 hours) [nM] | IC50 [5] [nM] | IC50 [6] [nM] | IC50 [7] [nM] | further results |
| --- | --- | --- | --- | --- | --- | --- | --- |
| COc1cc(N2CCC(N3CCN(C)CC3)CC2)ccc1Nc1ncc(Cl)c(Nc2ccccc2P(C)(C)=O)n1 [Brigatinib, reference compound] | 777 | 221 |  |  |  |  | IC50 ([3]; 72 h): 1450 nM; IC50 ([4]; BaF3, 72 h): 1480 nM |
| CCS(=O)(=O)n1cc2c3ccc(cc31)OCCCn1cc(cn1)-c1cc(ccc1N1CCOCC1)Nc1nccc-2n1 [HC950, 1^1-ethylsulfonyl-4^6-methyl-4^4-(4-methylpiperazin-1-yl)-1^1H,5^1H-9-oxa-3-aza-1(3,6)-indole-2(4,2)-pyrimidine-5(4,1)-pyrazole-4(1,3)-benzenacyclononaphane] | 336 | 170 | 950 | 4.3 | 0.4 | 111 | IC50 ([3]; CCK-8, 72 hours): 149 nM |
| CCS(=O)(=O)n1cc2c3ccc(cc31)OCCCCCCOc1cc(c(C)cc1N1CCOCC1)Nc1ncc(Cl)c-2n1 [reference compound] |  |  |  |  |  |  | Cmax ([8]; IV 1 mg/kg): 2420 ± 165 ng/mL; clearance ([8]; IV 1 mg/kg): 16.2 ± 1.4 mL/min/kg; half-life ([8]; IV 1 mg/kg): 1.35 ± 0.18 h; Cmax ([8]; PO 5 mg/kg): 135 ng/mL; half-life ([8]; PO 5 mg/kg): 2.57 h; bioavailability ([8]; PO 5 mg/kg, read-out: F (oral bioavailability)): 11.9% |
| CCS(=O)(=O)n1cc2c3ccc(cc31)OCC(C)Cn1cc(cn1)-c1cc(c(OC)cc1N1CCOCC1)Nc1nccc-2n1 (stereo not shown) [WQX-1-80, (Z)-1^1-(ethylsulfonyl)-4^6-Methoxy-7-methyl-4^4-morpholino-1^1H,5^1H-9-oxa-3-aza-1(3,6)-indole-2(4,2)-pyrimidin-5(4,1)-pyrazol-4(1,3)-benzenacyclononaphane] | 734 | 311 | 1870 | 23.3 | 53.2 | > 1000 |  |
| CCS(=O)(=O)n1cc2c3ccc(cc31)OCCCn1cc(cn1)-c1cc(c(OC)cc1CN1CCOCC1)Nc1nccc-2n1 [WQX-2-35, (Z)-1^1-(ethylsulfonyl)-4^6-methoxy-4^4-(morpholinomethyl)-1^1H,5^1H-9-oxa-3-aza-1(3,6)-indole-2(4,2)-pyrimidine-5(4,1)-pyrazole-4(1,3)-benzocyclononane] |  |  |  | 1 | 14.1 | 141 |  |
| CCS(=O)(=O)n1cc2c3ccc(cc31)OCCCn1cc(cn1)-c1cc(cc(/C=C/C(C)(C)C)c1N1CCOCC1)Nc1ncc(Cl)c-2n1 [HC9004] |  |  |  | 195 | 384 | > 1000 |  |
| CCOc1cc(N2CCOCC2)c2cc1Nc1nccc(n1)-c1cn(S(=O)(=O)CC)c3cc(ccc13)OCCCn1cc-2cn1 [HC9596, (Z)-4^6-ethoxy-1^1-ethylsulfonyl-4^4-morpholino-1^1H,5^1H-9-oxa-3-aza-1(3,6)-indole-2(4,2)-pyrimidine-5(4,1)-pyrazole-4(1,3)-benzenacyclononaphane] | 455 | 371 | 3180 | 7.4 | 11.8 | 186 |  |
| CCS(=O)(=O)n1cc2c3ccc(cc31)OCCCCCCOc1cc(ccc1N1CCOCC1)Nc1ncc(Cl)c-2n1 [reference compound] |  |  |  | 9 | 14.4 | 190 |  |
